Test results reported in publication PMC3322284 (Journal of Pharmacological and Toxicological Methods, 2012).
Read-outs that look alike come from different tables or passages of the source. Non-standard residues stand in square brackets, D forms with d. Residues, ends and D or L forms follow the SMILES beside them. *: point of attachment. Sta = CC(C)C[C@H](N)[C@@H](O)CC(=O)O; Isovaleryl = CC(C)CC(=O)*

What was measured:
hamster Abcb1a Pgp [1] = molecular target: T1, hamster Abcb1a Pgp (Cricetulus griseus, UniProt P21448); assay: biochemical; type: binding
T1 sequence (P21448 whole entry): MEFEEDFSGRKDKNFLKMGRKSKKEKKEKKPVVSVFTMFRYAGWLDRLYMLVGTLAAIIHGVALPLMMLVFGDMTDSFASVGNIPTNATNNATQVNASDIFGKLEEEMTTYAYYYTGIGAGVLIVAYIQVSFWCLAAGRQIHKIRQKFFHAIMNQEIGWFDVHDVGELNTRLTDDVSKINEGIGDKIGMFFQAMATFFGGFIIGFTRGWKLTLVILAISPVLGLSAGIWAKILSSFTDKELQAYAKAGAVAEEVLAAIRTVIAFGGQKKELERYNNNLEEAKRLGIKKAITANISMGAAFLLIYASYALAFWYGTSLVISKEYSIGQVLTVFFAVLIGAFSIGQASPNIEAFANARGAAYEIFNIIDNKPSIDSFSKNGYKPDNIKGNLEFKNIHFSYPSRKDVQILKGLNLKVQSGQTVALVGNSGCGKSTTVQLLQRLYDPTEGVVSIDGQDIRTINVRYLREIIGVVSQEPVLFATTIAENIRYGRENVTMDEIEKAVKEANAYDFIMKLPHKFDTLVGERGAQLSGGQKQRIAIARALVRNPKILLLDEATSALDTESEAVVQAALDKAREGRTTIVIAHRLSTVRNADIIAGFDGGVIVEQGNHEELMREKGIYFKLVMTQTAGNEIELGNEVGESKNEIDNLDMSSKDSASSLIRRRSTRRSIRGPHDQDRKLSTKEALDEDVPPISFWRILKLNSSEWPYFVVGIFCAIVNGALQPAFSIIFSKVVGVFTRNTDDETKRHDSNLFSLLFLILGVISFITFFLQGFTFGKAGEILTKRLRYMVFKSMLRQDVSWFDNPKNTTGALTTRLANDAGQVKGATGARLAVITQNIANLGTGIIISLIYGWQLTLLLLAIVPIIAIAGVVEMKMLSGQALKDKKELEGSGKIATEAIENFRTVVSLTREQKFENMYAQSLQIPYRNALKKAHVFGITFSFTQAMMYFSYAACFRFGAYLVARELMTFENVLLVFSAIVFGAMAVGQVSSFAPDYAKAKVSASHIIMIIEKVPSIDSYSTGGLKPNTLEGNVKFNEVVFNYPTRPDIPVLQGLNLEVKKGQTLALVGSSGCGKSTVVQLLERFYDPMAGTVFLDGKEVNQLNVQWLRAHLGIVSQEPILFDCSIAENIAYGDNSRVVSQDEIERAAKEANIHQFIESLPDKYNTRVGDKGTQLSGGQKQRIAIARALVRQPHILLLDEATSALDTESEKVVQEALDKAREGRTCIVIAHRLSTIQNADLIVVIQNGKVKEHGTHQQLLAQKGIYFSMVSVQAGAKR

[2] = humans; ref Fenner et al., 2009; cited from earlier work
hamster Abcb1a Pgp [3] = molecular target: T1, hamster Abcb1a Pgp; assay: Fluorosome-trans-pgp
human MDR1 Pgp = human MDR1 Pgp (Homo sapiens, UniProt P08183); assay: Inhibition of net [3H]digoxin transport in LLC-MDR1 cell monolayers; type: cell-based
Sequence of human MDR1 Pgp (P08183 whole entry): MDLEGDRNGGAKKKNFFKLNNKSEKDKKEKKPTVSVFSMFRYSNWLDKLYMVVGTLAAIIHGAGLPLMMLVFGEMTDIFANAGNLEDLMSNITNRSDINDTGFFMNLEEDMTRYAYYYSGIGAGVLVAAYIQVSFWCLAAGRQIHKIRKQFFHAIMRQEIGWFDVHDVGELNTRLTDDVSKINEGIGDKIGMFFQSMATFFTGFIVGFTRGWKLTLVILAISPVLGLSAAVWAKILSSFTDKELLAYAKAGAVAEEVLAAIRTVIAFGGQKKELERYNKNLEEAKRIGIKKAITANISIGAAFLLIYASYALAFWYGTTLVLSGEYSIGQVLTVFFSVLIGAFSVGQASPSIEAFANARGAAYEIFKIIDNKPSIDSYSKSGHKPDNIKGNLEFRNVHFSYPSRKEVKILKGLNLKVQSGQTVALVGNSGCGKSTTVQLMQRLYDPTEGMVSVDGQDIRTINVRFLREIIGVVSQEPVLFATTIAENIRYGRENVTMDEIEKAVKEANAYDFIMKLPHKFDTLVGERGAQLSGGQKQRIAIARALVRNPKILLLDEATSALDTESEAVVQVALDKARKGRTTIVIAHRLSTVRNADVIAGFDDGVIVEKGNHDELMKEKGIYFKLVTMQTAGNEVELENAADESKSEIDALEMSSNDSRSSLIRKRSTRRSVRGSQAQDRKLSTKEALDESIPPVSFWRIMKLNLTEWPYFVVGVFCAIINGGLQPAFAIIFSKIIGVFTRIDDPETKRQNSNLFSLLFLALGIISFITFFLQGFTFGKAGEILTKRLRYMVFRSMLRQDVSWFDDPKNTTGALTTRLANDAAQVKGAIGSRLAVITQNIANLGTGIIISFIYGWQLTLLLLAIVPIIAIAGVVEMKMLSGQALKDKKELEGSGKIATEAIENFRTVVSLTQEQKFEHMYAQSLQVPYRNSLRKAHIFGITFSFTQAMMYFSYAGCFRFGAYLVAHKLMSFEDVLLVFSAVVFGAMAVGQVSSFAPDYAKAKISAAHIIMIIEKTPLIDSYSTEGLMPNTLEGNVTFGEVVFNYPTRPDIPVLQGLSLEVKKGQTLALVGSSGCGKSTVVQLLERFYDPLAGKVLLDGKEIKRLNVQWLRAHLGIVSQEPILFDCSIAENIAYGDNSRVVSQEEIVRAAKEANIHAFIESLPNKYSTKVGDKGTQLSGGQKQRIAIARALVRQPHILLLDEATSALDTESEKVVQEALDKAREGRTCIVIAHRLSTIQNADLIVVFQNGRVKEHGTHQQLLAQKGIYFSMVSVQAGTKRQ

[4] = IC50,Fl, Table 2, half-maximal concentration for inhibition of transport in Fl-t-pgp
[5] = IC50 Fl-t-pgp, inhibition of S-HR transport, 2 mM ATP, 23°C
[6] = read-out: IC50 Fl-t-pgp, inhibition of S-HR transport, 2 mM ATP, 23°C

| SMILES | [I2] estimated gastrointestinal concentration of drug after oral dose [2] [µM] | [I] peak plasma concentration of drug at steady state [2] [µM] | IC50 (hamster Abcb1a Pgp [3]; [4]) [µM] | IC50 (hamster Abcb1a Pgp [3]; [5]) [µM] | other results |
| --- | --- | --- | --- | --- | --- |
| COC(=O)C1=C(C)NC(C)=C(C(=O)OCCN(C)Cc2ccccc2)C1c1cccc([N+](=O)[O-])c1 (centres unmarked) [Nicardipine] | 248 | 0.18 | 0.93 | 0.93 | Kd (hamster Abcb1a Pgp [1]): 6.5 µM |
| CCCN(CCC)S(=O)(=O)c1ccc(C(=O)O)cc1 [Probenecid] | – | – | – | 240 | – |
| CC(=O)O[C@H]1C(=O)[C@@]2(C)[C@H]([C@H](OC(=O)c3ccccc3)[C@]3(O)C[C@H](OC(=O)[C@H](O)[C@@H](NC(=O)c4ccccc4)c4ccccc4)C(C)=C1C3(C)C)[C@]1(OC(C)=O)CO[C@@H]1C[C@@H]2O [Paclitaxel] | – | – | – | 1.2 | Kd (hamster Abcb1a Pgp [1]): 0.038 µM |
| C[C@H](CS)C(=O)N1CCC[C@H]1C(=O)O [Captopril] | 230 | 0.23 | – | – | IC50 (human MDR1 Pgp): > 1000 µM |
| COc1cc2c(cc1OC)CN(CCc1ccc(NC(=O)c3cc(OC)c(OC)cc3NC(=O)c3cnc4ccccc4c3)cc1)CC2 [Tariquidar] | – | – | – | – | IC50 (hamster Abcb1a Pgp [3]): 0.021 µM |
| COc1ccccc1OCC(O)CN1CCN(CC(=O)Nc2c(C)cccc2C)CC1 (centres unmarked) [Ranolazine] | 9356 | 8.4 | 64.1 | 64 | IC50 (human MDR1 Pgp): 130 µM |
| C[C@H]1O[C@@H](O[C@H]2[C@@H](O)C[C@H](O[C@H]3[C@@H](O)C[C@H](O[C@H]4CC[C@@]5(C)[C@H](CC[C@@H]6[C@@H]5C[C@@H](O)[C@]5(C)[C@@H](C7=CC(=O)OC7)CC[C@]65O)C4)O[C@@H]3C)O[C@@H]2C)C[C@H](O)[C@@H]1O [Digoxin] | – | – | – | 80 | – |
| COc1ccc2c(c1)c(CC(=O)O)c(C)n2C(=O)c1ccc(Cl)cc1 [Indomethacin] | – | – | – | 51 | – |
| Cc1c(O)cccc1C(=O)N[C@@H](CSc1ccccc1)[C@H](O)CN1C[C@H]2CCCC[C@H]2C[C@H]1C(=O)NC(C)(C)C [Nelfinavir] | – | – | – | 0.59 | Kd (hamster Abcb1a Pgp [1]): 0.98 µM |
| COc1ccccc1OCCNCC(O)COc1cccc2[nH]c3ccccc3c12 (centres unmarked) [Carvedilol] | 61.5 | 0.13 | 3.8 | 3.8 | IC50 (human MDR1 Pgp): 32 µM |
| CCCc1nc2c(C)cc(-c3nc4ccccc4n3C)cc2n1Cc1ccc(-c2ccccc2C(=O)O)cc1 [Telmisartan] | 933 | 1.11 | 0.12 | 0.12 | IC50 (human MDR1 Pgp): 17 µM |
| COC(=O)C1=C(C)NC(C)=C(C(=O)OC(C)C)C1c1cccc2nonc12 (centres unmarked) [Isradipine] | 161.5 | 0.02 | 6.6 | 6.6 | IC50 (human MDR1 Pgp): 29 µM |
| O[C@@H](COc1cccc2ncccc12)CN1CCN([C@@H]2c3ccccc3[C@@H]3[C@H](c4ccccc42)C3(F)F)CC1 [Zosuquidar] | – | – | – | – | Kd (hamster Abcb1a Pgp [1]; fluorescence quenching of purified Pgp in 2 mM CHAPS): 0.055 µM; IC50 (hamster Abcb1a Pgp [3]; [6]): 0.59 µM |
| CC(C)CC(=O)N[C@H](C(=O)N[C@H](C(=O)N[C@@H](CC(C)C)[C@@H](O)CC(=O)N[C@@H](C)C(=O)N[C@@H](CC(C)C)[C@@H](O)CC(=O)O)C(C)C)C(C)C [Pepstatin A] (Isovaleryl-VV[Sta]A[Sta]-OH) | – | – | – | 29 | – |
| C/C=C/C[C@@H](C)C(=O)[C@H]1C(=O)N[C@@H](C(C)C)C(=O)N(C)CC(=O)N(C)[C@@H](CC(C)C)C(=O)N[C@@H](C(C)C)C(=O)N(C)[C@@H](CC(C)C)C(=O)N[C@@H](C)C(=O)N[C@H](C)C(=O)N(C)[C@@H](CC(C)C)C(=O)N(C)[C@@H](CC(C)C)C(=O)N(C)[C@@H](C(C)C)C(=O)N1C [Valspodar] | – | – | – | 0.25 | Kd (hamster Abcb1a Pgp [1]): 0.08 µM |
| CCOC(=O)C1=C(C)NC(C)=C(C(=O)OC)C1c1cccc([N+](=O)[O-])c1 (centres unmarked) [Nitrendipine] | 222.0 | 0.03 | 5.8 | 5.8 | – |
| COCC(=O)O[C@]1(CCN(C)CCCc2nc3ccccc3[nH]2)CCc2cc(F)ccc2[C@@H]1C(C)C [Mibefradil] | 1211 | 2.42 | 7.1 | 7.1 | – |
| C[C@]12CC[C@H](O)C[C@H]1CC[C@@H]1[C@@H]2C[C@@H](O)[C@]2(C)[C@@H](C3=CC(=O)OC3)CC[C@]12O [Digoxigenin] | – | – | – | – | IC50 (hamster Abcb1a Pgp [3]): 520 µM |
| CC(=O)[C@H]1CC[C@H]2[C@@H]3CCC4=CC(=O)CC[C@]4(C)[C@H]3CC[C@]12C [Progesterone] | – | – | – | 3.7 | – |
| COc1ccc([C@@H]2Sc3ccccc3N(CCN(C)C)C(=O)[C@@H]2OC(C)=O)cc1 [Diltiazem] | – | – | 24.2 | 24 | – |
| Cc1c(C)c2c(c(C)c1O)CCC(C)(COc1ccc(CC3SC(=O)NC3=O)cc1)O2 (centres unmarked) [Troglitazone] | 3264 | 3.62 | 5.2 | 5.2 | IC50 (human MDR1 Pgp): 12 µM |
| COC(=O)[C@H]1[C@H]2C[C@@H]3c4[nH]c5cc(OC)ccc5c4CCN3C[C@H]2C[C@@H](OC(=O)c2cc(OC)c(OC)c(OC)c2)[C@@H]1OC [Reserpine] | – | – | – | 0.31 | Kd (hamster Abcb1a Pgp [1]): 0.73 µM |
| COc1cc2c(cc1OC)CN(CCc1ccc(NC(=O)c3cccc4c(=O)c5cccc(OC)c5[nH]c34)cc1)CC2 [Elacridar] | – | – | – | 0.1 | Kd (hamster Abcb1a Pgp [1]): 0.59 µM |
| CC(=O)NC(CC(C)C)C(=O)NC(CC(C)C)C(=O)NC(Cc1ccc(O)cc1)C(N)=O (stereo not drawn) [NAc-LLY-amide] (Ac-Leu-Leu-Tyr-NH2; configuration not given here) | – | – | – | – | IC50 (hamster Abcb1a Pgp [3]; [6]): 13 µM |
| C=CCN1CC[C@]23c4c5ccc(O)c4O[C@H]2C(=O)CC[C@@]3(O)[C@H]1C5 [Naloxone] | – | – | – | – | IC50 (hamster Abcb1a Pgp [3]): 210 µM |
| CCc1oc2ccccc2c1C(=O)c1cc(Br)c(O)c(Br)c1 [Benzbromarone] | – | – | – | – | IC50 (hamster Abcb1a Pgp [3]): 44 µM |
| CCCCc1oc2ccccc2c1C(=O)c1cc(I)c(OCCN(CC)CC)c(I)c1 [Amiodarone] | 4693 | – | – | – | – |
| CN[C@H]1CC[C@@H](c2ccc(Cl)c(Cl)c2)c2ccccc21 [Sertraline] | 2612 | 0.39 | 29 | 29 | – |
| COc1ccc2c3c([nH]c2c1)[C@H](CC(C)C)N1C(=O)[C@H](CCC(=O)OC(C)(C)C)NC(=O)[C@@H]1C3 [Ko143] | – | – | – | – | IC50 (hamster Abcb1a Pgp [3]; [6]): 7.5 µM |
